A short description of the series: gradient 5% acetonitrile 3 min, to 50% in 2 min, to 85% in 15 min, held 3 min, 100 µL/min. The conditions noted are these: column: Zorbax Extend-C18 2.1 x 50 mm; eluents: water / acetonitrile, 0.1% formic acid. The method, boiled down:
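Standards, all pure, were combined into mixtures of ~100 molecules and run at 100 μL/min on a Zorbax Extend-C18 column (2.1 × 50 mm, 1.8 μm) with water and acetonitrile, each containing 0.1% formic acid. A coupled quadrupole time-of-flight mass spectrometer operated in positive and negative ionization mode. Retention time values come from computationally picked adduct peaks, each inspected manually.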
`COc1ccc(C(=O)N2CCN(c3cc(C)n4cnnc4n3)CC2)c(OC)c1`: the RP-LC retention time is 999 s. As for `COc1ccc(CNC(=O)C2=C3CCCN3c3ccc(F)cc3S2(=O)=O)cc1OC`, the RP-LC retention time was 764 s. Consider `COc1ccc(OC)c(-c2cn3ccn(-c4ccc(OC)c(Cl)c4)c(=O)c3n2)c1`, for which the RP-LC retention time came out at 885 s.

For `COc1cc([C@@H]2c3cc4c(c(O)c3C[C@H]3COC(=O)[C@@H]32)OCO4)cc(OC)c1OC`, the RP-LC retention time is 620 s. Consider `CCc1nc2ncc(-c3ccnc(N4CCN(Cc5ccccc5)CC4)n3)c(C)n2n1`, for which the RP-LC retention time is 607 s. Take `COc1ccc(-c2nc3cnccn3c2Nc2ccccc2OC)cc1`: the RP-LC retention time turned out to be 863 s. The value for `Cc1nnsc1C(=O)Nc1ccc2c(c1)OCC(C)(C)C(=O)N2C` was 605 s; that for `CCc1cc(=O)n(CC(=O)NCc2ccc3c(c2)OCO3)c(N2CCOCC2)n1` was 677 s; that for `COc1ccc(-c2ncc3c(=O)n(CC(=O)Nc4cc(OC)cc(OC)c4)cnc3n2)cc1` was 854 s. `CC1CCN(c2ncc3c(n2)CCC(C(=O)NCCc2cccnc2)C3)CC1` (stereo not drawn) gave an RP-LC retention time of 598 s. In turn, `CCn1c(=O)c2c(nc3n2CC(C)CN3c2ccc(Br)cc2)n(C)c1=O` (stereo not drawn) displayed an RP-LC retention time of 954 s. `O=C(Cn1cccc(S(=O)(=O)N2CCOCC2)c1=O)NCc1ccc(Cl)cc1`: the RP-LC retention time worked out at 666 s. For the compound `COc1cccc(-c2noc(Cn3c(=O)n(Cc4ccccc4)c(=O)c4sccc43)n2)c1`, the RP-LC retention time is 911 s. In the case of `CCOc1nc2ccccc2nc1N1CCCC(C(=O)Nc2ccc(F)c(Cl)c2)C1` (stereo not drawn), the RP-LC retention time was found to be 797 s. As for `CCOC(=O)c1noc2ncnc(Nc3cc(Cl)ccc3OC)c12`, the RP-LC retention time is 1080 s. In the case of `CCOc1ccc(NC(=O)NCCn2c(C(F)(F)F)nc3cccnc32)cc1`, the RP-LC retention time is 756 s. Next, `CCCNc1cc(N2CCCC(CCC(=O)Nc3ccc(OCC)cc3)C2)ncn1` (stereo not drawn): 728 s; `O=C(Nc1c(C(=O)N2CCN(c3ccccn3)CC2)oc2ccccc12)c1cccc([N+](=O)[O-])c1`: 744 s. As for `COc1ccc(-n2ccc(=O)c(-c3nc(-c4ccccc4OCc4ccccc4)no3)n2)cc1`, the RP-LC retention time amounted to 984 s. In the case of `CC1(C(=O)NCc2ccccc2)CCCN(C(=O)NCCc2ccccc2)C1` (stereo not drawn), the RP-LC retention time worked out at 840 s. `CCCc1ccc(S(=O)(=O)N2CCCC2c2nc(-c3ccc(Cl)cc3)no2)cc1` (stereo not drawn) came in with an RP-LC retention time of 1380 s. Turning to `CCn1cc(-c2nc(C(=O)Nc3ccc(C)c(F)c3)cs2)c2cccnc21`, the RP-LC retention time is 987 s. For `Cc1cc(C)n(C(=O)c2ccc(Cl)cc2[N+](=O)[O-])n1`, the RP-LC retention time worked out at 927 s. Consider `Cc1nc(-n2cccc2)sc1C(=O)NCc1cc(-c2cccs2)on1`, for which the RP-LC retention time was 894 s. `CN(c1cccc(C(F)(F)F)c1)S(=O)(=O)c1cc2n(c1)CCCNC2=O`: the RP-LC retention time was determined as 759 s.

The compound `O=C(Nc1nc(-c2ccc(F)cc2)cs1)c1c(-c2ccccc2)nc2n1CCS2(=O)=O` registered an RP-LC retention time of 1000 s. `O=S(=O)(Nc1ccc(Cn2cncn2)cc1)c1ccccc1F` showed an RP-LC retention time of 688 s. `COc1cc(NC(=O)Cn2nc3c4cc(F)ccc4ncn3c2=O)cc(OC)c1`: the RP-LC retention time was found to be 697 s. On to `O=C(NCc1cccc(F)c1)C1CCN(c2cnc(N3CCSCC3)nc2)CC1`, for which the RP-LC retention time was 793 s.

`Cc1ccc(C(CNC(=O)c2cc(=O)c3ccccc3o2)N(C)C)cc1` (stereo not drawn) displayed an RP-LC retention time of 626 s.

Turning to `CCCOc1ccc(CN2C[C@@H]3C(=O)N(CCCN4CCCC4=O)C(=O)[C@@H]3C2)cc1`, the RP-LC retention time came out at 630 s. For `O=S(=O)(Cc1ccccc1)N1CC(n2cc(COc3ccc(F)cc3)nn2)C1`, the RP-LC retention time was 899 s.

`O=C(NCc1nnc(SCc2c(F)cccc2Cl)o1)c1cccc(C(F)(F)F)c1` showed an RP-LC retention time of 933 s. For `CCOc1ccccc1CNC(=O)C1CCN(S(=O)(=O)c2cn(CC)cn2)CC1`, the RP-LC retention time was found to be 739 s.

As for `CCOC(=O)c1cc([N+](=O)[O-])sc1NC(=O)c1nc2ccccc2s1`, the RP-LC retention time worked out at 1270 s. As for `O=C(NCc1ccc(F)cc1)[C@@H]1COCC(=O)N1Cc1ccc(F)cc1`, the RP-LC retention time came out at 791 s.

As to `Cc1cccc(CN2N=C(C(=O)N3CCCC3)S(=O)(=O)c3ccccc32)c1`, the RP-LC retention time amounted to 892 s.

Compound `Cc1ccc(C(=O)Nc2c(-c3ccc(F)cc3)nc3ccccn23)cc1[N+](=O)[O-]` displayed an RP-LC retention time of 701 s. On to `Cn1c(=O)c(N2CCCC(C(=O)NCCc3c[nH]c4ccc(Cl)cc34)C2)nc2ccccc21` (stereo not drawn), for which the RP-LC retention time stood at 960 s. Consider `CCN(CC)C(=O)c1ccc2c(c1)N(CC(=O)N(C)Cc1ccccc1)C(=O)CS2`, for which the RP-LC retention time amounted to 787 s. `COc1ccc(N2CCN(c3cc(SCC(=O)Nc4ccc(Cl)cc4F)ncn3)CC2)cc1` yielded an RP-LC retention time of 1090 s. `Cn1cc(C2=CCN(C(=O)Cc3ccccc3F)CC2)c2cccnc21` had an RP-LC retention time of 855 s. Consider `O=C(Nc1nc(-c2ccc(Cl)c(Cl)c2)cs1)c1ccc(F)c(F)c1`, for which the RP-LC retention time was found to be 1260 s.

`Cc1nnc(-c2cc(NC(=O)c3cc(F)ccc3Cl)c(C)s2)o1`: the RP-LC retention time stood at 955 s. `O=C(NCC1(c2cccs2)CCOCC1)c1ccccc1F`: the RP-LC retention time was 763 s. Consider `CCOC(=O)c1c(CN2CCOCC2)n(C)c2cc(Br)c(OC(C)=O)cc12`, for which the RP-LC retention time was 704 s. For `CC(Oc1ccccc1)C(=O)N1CCN(C(=O)c2nnn3c2COC(c2ccc(Cl)cc2)C3)CC1` (stereo not drawn), the RP-LC retention time turned out to be 972 s. As to `CC(C)NC(=O)c1ccc(OCC2CCN(C(=O)C3CCCO3)CC2)cc1` (stereo not drawn), the RP-LC retention time stood at 697 s.

With `CCN(C(=O)CN1C(=O)NC(c2ccc(C)cc2)C2=C1COC2=O)c1cccc(C)c1` (stereo not drawn), the RP-LC retention time was 817 s. Compound `COc1ccccc1C(=O)N1CCC2(CC1)NC(=O)c1ccc(F)cc1N2C` displayed an RP-LC retention time of 725 s. On to `Cc1cnc(C2CC2)n1C1CCN(S(=O)(=O)c2ccc(C#N)cc2)C1` (stereo not drawn), for which the RP-LC retention time worked out at 647 s. Consider `O=C1c2ccccc2C(=O)c2sc(Nc3ccc(Cl)c(Cl)c3)nc21`, for which the RP-LC retention time was 1140 s. Next, `COc1c(C)c2c(c(O)c1C/C=C(\C)CCC(=O)O)C(=O)OC2`: 800 s. The value for `Cc1[nH]nc2ccc(-c3cncc(OC[C@@H](N)Cc4ccccc4)c3)cc12` was 624 s; that for `CCCn1cc(C(=O)Nc2cccc(C)c2)c(S(=O)(=O)N2CCSCC2)n1` was 1120 s. The compound `O=C(C1CCN(c2nnc(-c3ccccc3)o2)CC1)N1CCCCCC1` came in with an RP-LC retention time of 810 s. Regarding `CC(C)CC(=O)Nc1nnc(SCc2nnc(-c3ccc4c(c3)OCO4)o2)s1`, the RP-LC retention time came to 854 s. On to `Cc1cc(C(=O)N2CCCC2c2nncn2C(C)C)n[nH]1` (stereo not drawn), for which the RP-LC retention time came out at 579 s. In the case of `O=C(Nc1ccc2c(c1)OCO2)Nc1cccn2c(C3CCC3)nnc12`, the RP-LC retention time was 801 s.

`CC1=C(c2ccccc2)S(=O)(=O)N=C1N1CCCN(C(=O)c2ccc(Cl)cc2)CC1`: the RP-LC retention time is 863 s. Take `CN(C)C(=O)c1ccc2c(c1)N(CC(=O)NC1CCCCC1)C(=O)C1CCCCN21` (stereo not drawn): the RP-LC retention time amounted to 743 s. The value for `CC(CCNC(=O)c1ccc2ccnc(N3CCN(c4ccc(F)cc4)CC3)c2c1)N1CCCC1` (stereo not drawn) was 597 s. The value for `Cc1nnc(NC(=O)CSc2nnc(-c3ccccc3F)o2)s1` was 700 s; that for `CSc1ncccc1C(=O)NCC(O)c1ccsc1` (stereo not drawn) was 626 s; that for `Cc1noc(-c2cccn2Cc2cccc(Cl)c2)n1` was 1110 s. Next, `CC(=O)Nc1nnc(SCC(=O)Nc2ccc(OC(F)(F)F)cc2)s1`: 733 s.

As for `Cc1ccc(CN2C(=O)CN(S(C)(=O)=O)CC2(C)C(=O)NCc2ccc(Cl)cc2)cc1` (stereo not drawn), the RP-LC retention time is 906 s. Next, `O=C(NCc1ccc(Cl)cc1)C1CCN(S(=O)(=O)c2cc(C(=O)N3CCCC3)cs2)CC1`: 916 s; `CCN(CC)CCCNC(=O)C1CCCN(c2nc3ccccc3n(Cc3ccccc3)c2=O)C1` (stereo not drawn): 726 s. Consider `CC1=NS(=O)(=O)N(C)C=C1C(=O)OCc1cc(C)ccc1C`, for which the RP-LC retention time was 957 s. In turn, `COc1ccc2c(c1)C1(CCN(C(=O)CC(C)(C)C)C1)C(=O)N2C` (stereo not drawn) had an RP-LC retention time of 782 s.

On to `CN(C)CCCn1cc2c(c1-c1cccc(Br)c1)c(=O)n(C)c(=O)n2C`, for which the RP-LC retention time was 617 s. The compound `CCn1c(C(=O)N2CCN(c3cccc(C)c3)C(C)C2)cc2sccc21` (stereo not drawn) came in with an RP-LC retention time of 1050 s. For `CCOC(=O)c1nc(NC(C)c2ccccc2)c2ccccc2n1` (stereo not drawn), the RP-LC retention time worked out at 794 s.

With `Cc1ccc(CCNC(=O)C2CCCN(C(=O)c3cc4sccc4n3C)C2)cc1` (stereo not drawn), the RP-LC retention time was 911 s.

Take `CCOc1ccc(-c2ccc(=O)n(Cc3nc(-c4ccc5c(c4)OCO5)no3)n2)cc1`: the RP-LC retention time came out at 1050 s.

`COCCC(=O)N1CCCN(C2=NS(=O)(=O)C(c3ccc(F)cc3)=C2C)CC1` gave an RP-LC retention time of 697 s.

`CN(C)C(=O)c1ccc2c(c1)nc(CN(C)C(=O)Nc1ccc(F)cc1)n2C` displayed an RP-LC retention time of 598 s.

These data come from the METLIN SMRT retention time set (Domingo-Almenara et al. 2019).
